In test [1] the test system is Cavia porcellus. Nature of the test: Percentage decrease in bronchodilator activity against serotonin-induced bronchospasm reaction in guinea pig by intraveneous administration at dose 250 ug/kg. In kind it is functional.
In test [2] the test system is Cavia porcellus. Nature of the test: Percent decrease in bronchodilator activity against acetylcholine-induced bronchospasm reaction in guinea pig by intraveneous administration at dose 250 ug/kg. In kind it is functional.
Test [3] concerns Rattus norvegicus. Nature of the test: Percent decrease in antiallergic activity by antigen/antibody reaction assay in rat by oral administration at a dose of 10 mg/kg. In kind it is functional.
Test [4] relates to Rattus norvegicus. Put plainly: Percentage decrease in antiallergic activity against cutaneous reaction to histamine in rat, by oral administration at a dose of 10 mg/kg. The test is classed as functional.
The test system of test [5] is Cavia porcellus. Put plainly: Percent decrease in bronchodilator activity against histamine-induced bronchospasm reaction in guinea pig by intraveneous administration at dose 4 mg/kg.
In test [6] the test system is Cavia porcellus. Put plainly: Percent decrease in bronchodilator activity against histamine-induced bronchospasm reaction in guinea pig by intraveneous administration at dose 250 ug/kg. In kind it is functional.
Test [7] relates to Rattus norvegicus. Nature of the test: Percent protection against Passive Cutaneous Anaphylaxis in rat after 2.0 hr at dose 100 mg/kg by peroral administration through antigen or antibody reaction. In kind it is functional. The settings on record: route oral.
Test [8] deals with Rattus norvegicus. Put plainly: Percent protection against Passive Cutaneous Anaphylaxis in rat after 2.0 hr at dose 100 mg/kg by peroral administration through exogenous histamine reaction. The settings on record: route oral. In kind it is functional.
The test system of test [9] is Rattus norvegicus. Nature of the test: Percent protection against Passive Cutaneous Anaphylaxis in rat after 3.0 hh at dose 100 mg/kg by peroral administration through antigen or antibody reaction. In kind it is functional. The settings on record: route oral.
Test [10] deals with Rattus norvegicus. Nature of the test: Percent protection against Passive Cutaneous Anaphylaxis in rat after 3.0 hh at dose 100 mg/kg by peroral administration through exogenous histamine reaction. In kind it is functional. The settings on record: route oral.
Test [11] concerns Rattus norvegicus. Put plainly: Percent protection against Passive Cutaneous Anaphylaxis in rat after 4.0h at dose 100 mg/kg by peroral administration through antigen or antibody reaction. The test is classed as functional. The settings on record: route oral.
For test [12], the system named is Rattus norvegicus. Nature of the test: Percent protection against Passive Cutaneous Anaphylaxis in rat after 4.0h at dose 100 mg/kg by peroral administration through exogenous histamine reaction. In kind it is functional. The settings on record: route oral.
For test [13], the system named is Rattus norvegicus. Put plainly: Percent protection against Passive Cutaneous Anaphylaxis in rat after 0.25 hr at dose 100 mg/kg by peroral administration through antigen or antibody reaction. In kind it is functional. The settings on record: route oral.
The test system of test [14] is Rattus norvegicus. Nature of the test: Percent protection against Passive Cutaneous Anaphylaxis in rat after 0.25 hr at dose 100 mg/kg by peroral administration through exogenous histamine reaction. In kind it is functional. The settings on record: route oral.
Test [15] concerns Rattus norvegicus. Nature of the test: Percent protection against Passive Cutaneous Anaphylaxis in rat after 1.0 hr at dose 100 mg/kg by peroral administration through antigen or antibody reaction. The test is classed as functional. The settings on record: route oral.
Test [16] deals with Rattus norvegicus. Put plainly: Percent protection against Passive Cutaneous Anaphylaxis in rat after 1.0 hr at dose 100 mg/kg by peroral administration through exogenous histamine reaction. The test is classed as functional. The settings on record: route oral.
Test [17] deals with Cavia porcellus. Nature of the test: Percent decrease in bronchodilator activity against histamine-induced bronchospasm reaction in guinea pig by intraveneous administration at dose 10.5 ug/kg.

This is an account of results in ChEMBL document CHEMBL1122998, “New antihistaminic theophylline or theobromine derivatives” (1985).

For `Cn1c(=O)c2nc[nH]c2n(C)c1=O.O` [THEOPHYLLINE], the Decrease turned out to be 59% in the test with Cavia porcellus [1]; 72% with Cavia porcellus [2]; 45% with Rattus norvegicus [3]; 15% with Rattus norvegicus [4]; 56% in the test on Cavia porcellus [5].
In the case of `CC(=O)OC(CN1CCN(CCCSc2ccccc2)CC1)Cn1cnc2c1c(=O)n(C)c(=O)n2C` (stereo not given), the Decrease in the test with Cavia porcellus [6] came out at 50%; with Cavia porcellus [1] it was 29%; in the test with Cavia porcellus [2], 17%; in the test on Rattus norvegicus [3] it was 54%; in the test on Rattus norvegicus [4], 62%.
As to `Cn1c(=O)c2c(ncn2CC(O)CN2CCN(CCCSc3ccccc3)CC2)n(C)c1=O` (stereo not given) [TAZIFYLLINE], the Decrease in the test on Cavia porcellus [1] came to 26%; with Cavia porcellus [2] it was 23%; with Rattus norvegicus [3], 54%; with Rattus norvegicus [4], 65%; in the test on Cavia porcellus [17], 76%. The Protection in the test on Rattus norvegicus [7] is 82%; in the test on Rattus norvegicus [8] it was 33%; in the test with Rattus norvegicus [9], 74%; in the test on Rattus norvegicus [10], 52%; in the test on Rattus norvegicus [11], 44%; with Rattus norvegicus [12], 39%. Further, the Protection with Rattus norvegicus [13] is listed as 100%; in the test with Rattus norvegicus [14], 52%; in the test with Rattus norvegicus [15] it was 98%; in the test on Rattus norvegicus [16], 49%.
As for `Cn1c(=O)c2c(ncn2CCCN2CCN(CCCCSc3ccccc3)CC2)n(C)c1=O`, the Decrease was found to be 24% in the test on Cavia porcellus [1]; 34% with Cavia porcellus [2]; 0% in the test on Rattus norvegicus [3]; 0% in the test on Rattus norvegicus [4]; 47% in the test with Cavia porcellus [17].
For the compound `CC(C(=O)N1CCN(CCCSc2ccccc2)CC1)n1cnc2c1c(=O)n(C)c(=O)n2C` (stereo not given), the Decrease was 0% in the test on Cavia porcellus [1]; 4% with Cavia porcellus [2]; 5% with Rattus norvegicus [3]; 6% in the test on Rattus norvegicus [4]; 3% in the test with Cavia porcellus [17].
Regarding `Cn1c(=O)c2c(ncn2CCCCCCN2CCN(CCCCSc3ccccc3)CC2)n(C)c1=O`, the Decrease in the test on Cavia porcellus [1] is on record as 23%; in the test with Cavia porcellus [2] it was 23%; in the test on Rattus norvegicus [3], 0%; with Rattus norvegicus [4] it was 0%; in the test with Cavia porcellus [17], 0%.
For the compound `Cn1cnc2c1c(=O)n(CCCN1CCN(CCCSc3ccccc3)CC1)c(=O)n2C`, the Decrease with Cavia porcellus [1] is recorded as 25%; in the test on Cavia porcellus [2], 10%; in the test with Rattus norvegicus [3], 15%; in the test on Rattus norvegicus [4], 31.5%; with Cavia porcellus [17], 56%.
Turning to `Cn1cnc2c1c(=O)n(CC(O)CN1CCN(CCCSc3ccccc3)CC1)c(=O)n2C` (stereo not given), the Decrease stood at 96% in the test with Cavia porcellus [1]; 24% with Cavia porcellus [2]; 43% in the test with Rattus norvegicus [3]; 10% in the test with Rattus norvegicus [4]; 66% in the test with Cavia porcellus [17].
Regarding `Cn1c(=O)c2c(ncn2CCC(=O)N2CCN(CCCSc3ccccc3)CC2)n(C)c1=O`, the Decrease is given as 0% with Cavia porcellus [1]; 3% with Cavia porcellus [2]; 0% in the test with Rattus norvegicus [3]; 0% in the test with Rattus norvegicus [4]; 2% in the test on Cavia porcellus [17].
For the compound `Cn1c(=O)c2c(ncn2CC(O)CN2CCN(CC(O)CSc3ccccc3)CC2)n(C)c1=O` (stereo not given), the Decrease was determined as 0% in the test on Cavia porcellus [1]; 0% in the test with Cavia porcellus [2]; 0% in the test with Rattus norvegicus [3]; 29% in the test with Rattus norvegicus [4]; 89% in the test on Cavia porcellus [17].
For the compound `Cc1cc(OCCCN2CCN(CC(O)Cn3c(=O)c4c(ncn4C)n(C)c3=O)CC2)cc(C)c1Cl` (stereo not given), the Decrease is reported as 53% in the test on Cavia porcellus [1]; 0% in the test with Cavia porcellus [2]; 8% with Rattus norvegicus [3]; 8% in the test with Rattus norvegicus [4]; 2% in the test on Cavia porcellus [17].
As to `Cn1c(=O)c2c(ncn2C/C=C/CN2CCN(CCCSc3ccccc3)CC2)n(C)c1=O`, the Decrease with Cavia porcellus [1] is 20%; in the test with Cavia porcellus [2], 0%; with Rattus norvegicus [3], 8%; in the test with Rattus norvegicus [4] it was 4%; in the test with Cavia porcellus [17], 8%.
As to `Cn1c(=O)c2c(ncn2CCCN2CCN(CC(O)CSc3ccccc3)CC2)n(C)c1=O` (stereo not given), the Decrease with Cavia porcellus [1] is reported as 0%; with Cavia porcellus [2], 0%; in the test on Rattus norvegicus [3], 0%; in the test on Rattus norvegicus [4], 0%; in the test with Cavia porcellus [17], 88%.
As for `COc1ccc(OCCCN2CCN(CC(O)Cn3cnc4c3c(=O)n(C)c(=O)n4C)CC2)cc1` (stereo not given), the Decrease stood at 0% in the test on Cavia porcellus [1]; 0% in the test on Cavia porcellus [2]; 0% with Rattus norvegicus [3]; 0% with Rattus norvegicus [4]; 27% in the test with Cavia porcellus [17].
In the case of `Cn1c(=O)c2c(ncn2CC(O)CN2CCN(CCCCSc3ccc(Cl)cc3)CC2)n(C)c1=O` (stereo not given), the Decrease in the test on Cavia porcellus [1], with Cavia porcellus [2], in the test with Rattus norvegicus [3], in the test on Rattus norvegicus [4] and in the test with Cavia porcellus [17] was 0% each time.
On to `Cn1cnc2c1c(=O)n(CC(O)CN1CCN(CCCSc3ccc(Cl)cc3)CC1)c(=O)n2C` (stereo not given), for which the Decrease in the test with Cavia porcellus [1] came out at 8%; with Cavia porcellus [2], 11%; in the test with Rattus norvegicus [3] it was 0%; with Rattus norvegicus [4] it was 0%; in the test on Cavia porcellus [17] it was 0%.
Turning to `Cc1ccc(SCCCN2CCN(CC(O)Cn3cnc4c3c(=O)n(C)c(=O)n4C)CC2)cc1` (stereo not given), the Decrease in the test on Cavia porcellus [1] worked out at 0%; in the test with Cavia porcellus [2], 0%; with Rattus norvegicus [3], 19%; with Rattus norvegicus [4] it was 24%; in the test with Cavia porcellus [17], 5%.
For `Cn1c(=O)c2c(ncn2CC(O)CN2CCN(CCCCSc3ccccc3)CC2)n(C)c1=O` (stereo not given), the Decrease is 0% in the test on Cavia porcellus [1]; 34% in the test with Cavia porcellus [2]; 0% with Rattus norvegicus [3]; 0% in the test on Rattus norvegicus [4]; 13% in the test on Cavia porcellus [17].
Take `Cn1c(=O)c2c(ncn2CCCN2CCN(CCCSc3ccccc3)CC2)n(C)c1=O`: the Decrease came out at 69% in the test with Cavia porcellus [1]; 23% in the test with Cavia porcellus [2]; 60% with Rattus norvegicus [3]; 62% in the test with Rattus norvegicus [4]; 95% with Cavia porcellus [17]. Moreover, the Protection amounted to 45% with Rattus norvegicus [7]; 28% in the test on Rattus norvegicus [8]; 0% in the test with Rattus norvegicus [9]; 0% with Rattus norvegicus [10]; 0% in the test on Rattus norvegicus [11]; 0% in the test on Rattus norvegicus [12]. Besides, the Protection in the test with Rattus norvegicus [13] stood at 98%; with Rattus norvegicus [14], 46%; with Rattus norvegicus [15], 45%; in the test with Rattus norvegicus [16], 23%.
Consider `COc1ccc(OCCCN2CCN(CC(O)Cn3c(=O)c4c(ncn4C)n(C)c3=O)CC2)cc1` (stereo not given), for which the Decrease is recorded as 3% in the test with Cavia porcellus [1]; 11% with Cavia porcellus [2]; 0% in the test with Rattus norvegicus [3]; 0% in the test on Rattus norvegicus [4]; 28% in the test on Cavia porcellus [17].
Consider `Cn1c(=O)c2c(ncn2CCCN2CCN(CCCCSc3ccc(Cl)cc3)CC2)n(C)c1=O`, for which the Decrease in the test with Cavia porcellus [1] worked out at 23%; in the test with Cavia porcellus [2], 26%; in the test on Rattus norvegicus [3], 0%; in the test with Rattus norvegicus [4], 0%; in the test with Cavia porcellus [17], 3%.
In the case of `Cn1c(=O)c2c(ncn2CCN2CCN(CCCSc3ccccc3)CC2)n(C)c1=O`, the Decrease is 48% with Cavia porcellus [1]; 0% with Cavia porcellus [2]; 28% with Rattus norvegicus [3]; 21% in the test on Rattus norvegicus [4]; 0% in the test on Cavia porcellus [17].
For `Cn1cnc2c1c(=O)n(CC(O)CN1CCN(CCCOc3ccccc3)CC1)c(=O)n2C` (stereo not given), the Decrease in the test with Cavia porcellus [1] turned out to be 50%; in the test on Cavia porcellus [2], 0%; in the test with Rattus norvegicus [3] it was 76%; in the test with Rattus norvegicus [4], 30%; in the test with Cavia porcellus [17], 10%.
In the case of `Cn1c(=O)c2c(ncn2CC(O)CN2CCN(CCCSc3ccc(Cl)cc3)CC2)n(C)c1=O` (stereo not given), the Decrease is on record as 0% in the test on Cavia porcellus [1]; 0% with Cavia porcellus [2]; 35% in the test on Rattus norvegicus [3]; 67% in the test with Rattus norvegicus [4]; 24% with Cavia porcellus [17].
With `Cn1c(=O)c2c(ncn2CC(O)CN2CCN(CCCOc3ccc(Cl)cc3)CC2)n(C)c1=O` (stereo not given), the Decrease with Cavia porcellus [1] is 0%; with Cavia porcellus [2], 0%; in the test with Rattus norvegicus [3], 22%; in the test on Rattus norvegicus [4], 44%; with Cavia porcellus [17], 19%.
